Laboratory results: ChEMBL document CHEMBL4354781, “Drug-resistance in Mycobacterium tuberculosis: where we stand” (2019)
Values after ≈ are worked out from the molar mass of the structure shown. Numbered stars: 1 amine (or outer) side, 2 acyl side, 3 side chain; on linkers, the order of the positions; unused ones are H or OH. Bridge positions count the residues as written; N and C are the ends. Square brackets hold non-standard residues; d marks the D form. Peptide text beside a SMILES is read from it. * marks the point of attachment. X1 = N=C1NCC[C@H]([C@H](N[*:1])C(=O)[*:2])N1; ΔAla(Z-3-ureido) = NC(=O)N/C=C(\N)C(=O)O; β3hOrn = NCCC[C@H](N)CC(=O)*; Dap = NC[C@H](N)C(=O)O

What was measured:
Assay type in all cases: functional
[1] = system: Mycobacterium tuberculosis; assay: Antitubercular activity against resistant Mycobacterium tuberculosis harboring rrs A1401G mutant
[2] = system: Mycobacterium tuberculosis; assay: Antitubercular activity against resistant Mycobacterium tuberculosis harboring rrs A1401G mutant after 3 to 6 weeks
[3] = system: Mycobacterium tuberculosis; assay: Antitubercular activity against resistant Mycobacterium tuberculosis harboring rrs C1402T mutant after 3 to 6 weeks
[4] = system: Mycobacterium tuberculosis; assay: Antitubercular activity against resistant Mycobacterium tuberculosis harboring rrs G1484T/C-12T mutant after 3 to 6 weeks
[5] = system: Mycobacterium tuberculosis; assay: Antitubercular activity against resistant Mycobacterium tuberculosis harboring rrs G37T mutant after 3 to 6 weeks
[6] = system: Mycobacterium tuberculosis; assay: Antitubercular activity against resistant Mycobacterium tuberculosis TDR harboring katG Ser315Thr mutant
[7] = system: Mycobacterium tuberculosis; assay: Antitubercular activity against resistant Mycobacterium tuberculosis TDR harboring inhA Promoter (c-15 t) mutant
[8] = system: Mycobacterium tuberculosis; assay: Antitubercular activity against resistant Mycobacterium tuberculosis TDR harboring inhA Promoter (c-15 t)/Ser94Ala mutant
[9] = system: Mycobacterium tuberculosis; assay: Antitubercular activity against resistant Mycobacterium tuberculosis Bangladesh isolate harboring inhA Promoter (c-15 t)
[10] = system: Mycobacterium tuberculosis; assay: Antitubercular activity against resistant Mycobacterium tuberculosis Bangladesh isolate harboring katG Ser315Thr mutant
[11] = system: Mycobacterium tuberculosis; assay: Antitubercular activity against resistant Mycobacterium tuberculosis TDR harboring inhA Promoter (c-15 t)/IIe21Thr mutant
[12] = system: Mycobacterium tuberculosis; assay: Antitubercular activity against resistant Mycobacterium tuberculosis Bangladesh isolate harboring inhA Promoter (c-15 t)/IIe21Thr mutant
[13] = system: Mycobacterium tuberculosis; assay: Antitubercular activity against resistant Mycobacterium tuberculosis Bangladesh isolate harboring inhA Promoter (c-15 t)/Ser94Ala mutant
[14] = system: Mycobacterium tuberculosis; assay: Antitubercular activity against resistant Mycobacterium tuberculosis 1 harboring rpoB Ser531Leu mutant after 4 weeks by absolute concentration-microtiter method
[15] = system: Mycobacterium tuberculosis; assay: Antitubercular activity against resistant Mycobacterium tuberculosis 3 harboring rpoB Ser531Leu mutant after 4 weeks by absolute concentration-microtiter method
[16] = system: Mycobacterium tuberculosis; assay: Antitubercular activity against resistant Mycobacterium tuberculosis 4 harboring rpoB Ser531Leu mutant after 4 weeks by absolute concentration-microtiter method
[17] = system: Mycobacterium tuberculosis; assay: Antitubercular activity against resistant Mycobacterium tuberculosis 21 harboring rpoB Ser531Leu mutant after 4 weeks by absolute concentration-microtiter method
[18] = system: Mycobacterium tuberculosis; assay: Antitubercular activity against resistant Mycobacterium tuberculosis 75 harboring rpoB Ser531Leu mutant after 4 weeks by absolute concentration-microtiter method
[19] = system: Mycobacterium tuberculosis; assay: Antitubercular activity against resistant Mycobacterium tuberculosis 76 harboring rpoB Ser531Leu mutant after 4 weeks by absolute concentration-microtiter method
[20] = system: Mycobacterium tuberculosis; assay: Antitubercular activity against resistant Mycobacterium tuberculosis 6 harboring rpoB Ser531Leu mutant after 4 weeks by absolute concentration-microtiter method
[21] = system: Mycobacterium tuberculosis; assay: Antitubercular activity against resistant Mycobacterium tuberculosis 26 harboring rpoB Ser531Leu mutant after 4 weeks by absolute concentration-microtiter method
[22] = system: Mycobacterium tuberculosis; assay: Antitubercular activity against resistant Mycobacterium tuberculosis 2 harboring rpoB Ser531Leu mutant after 4 weeks by absolute concentration-microtiter method
[23] = system: Mycobacterium tuberculosis; assay: Antitubercular activity against resistant Mycobacterium tuberculosis 7 harboring rpoB His526Tyr mutant by absolute concentration-microtiter method
[24] = system: Mycobacterium tuberculosis; assay: Antitubercular activity against resistant Mycobacterium tuberculosis 5 harboring rpoB His526Tyr mutant by absolute concentration-microtiter method
[25] = system: Mycobacterium tuberculosis; assay: Antitubercular activity against resistant Mycobacterium tuberculosis 73 harboring rpoB His526Tyr mutant by absolute concentration-microtiter method
[26] = system: Mycobacterium tuberculosis; assay: Antitubercular activity against resistant Mycobacterium tuberculosis 74 harboring rpoB His526Tyr mutant by absolute concentration-microtiter method
[27] = system: Mycobacterium tuberculosis; assay: Antitubercular activity against resistant Mycobacterium tuberculosis 72 harboring rpoB His526Asp mutant by absolute concentration-microtiter method
[28] = system: Mycobacterium tuberculosis; assay: Antitubercular activity against resistant Mycobacterium tuberculosis 23 harboring rpoB His526Asp mutant by absolute concentration-microtiter method
[29] = system: Mycobacterium tuberculosis; assay: Antitubercular activity against resistant Mycobacterium tuberculosis 8 harboring rpoB His526Pro mutant by absolute concentration-microtiter method
[30] = system: Mycobacterium tuberculosis; assay: Antitubercular activity against resistant Mycobacterium tuberculosis harboring embCAB Met306IIe/Val mutant
[31] = system: Mycobacterium tuberculosis; assay: Antitubercular activity against resistant Mycobacterium tuberculosis harboring embCAB Gly406Asp/Ala mutant
[32] = system: Mycobacterium tuberculosis; assay: Antitubercular activity against resistant Mycobacterium tuberculosis harboring pncA D8N mutant incubated for 3 weeks
[33] = system: Mycobacterium tuberculosis; assay: Antitubercular activity against resistant Mycobacterium tuberculosis harboring pncA Cys138S mutant incubated for 3 weeks
[34] = system: Mycobacterium tuberculosis; assay: Antitubercular activity against resistant Mycobacterium tuberculosis harboring gyrA Asp94His mutant incubated for 28 days by absolute concentration method
[35] = system: Mycobacterium tuberculosis; assay: Antitubercular activity against resistant Mycobacterium tuberculosis harboring gyrA Asp94Asn mutant incubated for 28 days by absolute concentration method
[36] = system: Mycobacterium tuberculosis; assay: Antitubercular activity against resistant Mycobacterium tuberculosis harboring gyrA Asp94Gly mutant incubated for 28 days by absolute concentration method
[37] = system: Mycobacterium tuberculosis; assay: Antitubercular activity against resistant Mycobacterium tuberculosis harboring gyrA Asp94Tyr mutant incubated for 28 days by absolute concentration method
[38] = system: Mycobacterium tuberculosis; assay: Antitubercular activity against resistant Mycobacterium tuberculosis harboring gyrB Ala90Val mutant incubated for 28 days by absolute concentration method
[39] = system: Mycobacterium tuberculosis; assay: Antitubercular activity against resistant Mycobacterium tuberculosis harboring gyrB T511N mutant incubated for 28 days by absolute concentration method
[40] = system: Mycobacterium tuberculosis; assay: Antitubercular activity against resistant Mycobacterium tuberculosis harboring rplC Cys154Arg mutant
[41] = system: Mycobacterium tuberculosis; assay: Antitubercular activity against multidrug resistant Mycobacterium tuberculosis

Work on `NCC[C@H](O)C(=O)N[C@@H]1C[C@H](N)[C@@H](O[C@H]2O[C@H](CN)[C@@H](O)[C@H](O)[C@H]2O)[C@H](O)[C@H]1O[C@H]1O[C@H](CO)[C@@H](O)[C@H](N)[C@H]1O` [AMIKACIN] yielded an MIC [1] of 4 µg/mL (≈ 6.83 µM).
Work on `NC[C@H]1O[C@H](O[C@H]2[C@H](O)[C@@H](O[C@H]3O[C@H](CO)[C@@H](O)[C@H](N)[C@H]3O)[C@H](N)C[C@@H]2N)[C@H](O)[C@@H](O)[C@@H]1O` [KANAMYCIN] yielded an MIC [2] greater than 2.5 µg/mL, an MIC [3] greater than 2.5 µg/mL and an MIC [4] greater than 2.5 µg/mL. It also gave an MIC [5] greater than 2.5 µg/mL.
`NNC(=O)c1ccncc1` [ISONIAZID] was tested, and the MIC [6] was greater than 19.2 µg/mL, the MIC [7] was 0.16 to 0.8 µg/mL and the MIC [8] was 3.2 to 12.8 µg/mL. The MIC [9] was 0.16 to 0.8 µg/mL (≈ 1.17 to 5.83 µM), the MIC [10] was greater than 19.2 µg/mL and the MIC [11] was 3.2 to 12.8 µg/mL. For the same compound, the MIC [12] was 3.2 to 12.8 µg/mL and the MIC [13] was 3.2 to 12.8 µg/mL.
In the case of `CO[C@H]1/C=C/O[C@@]2(C)Oc3c(C)c(O)c4c(O)c(c(/C=N/N5CCN(C)CC5)c(O)c4c3C2=O)NC(=O)/C(C)=C\C=C\[C@H](C)[C@H](O)[C@@H](C)[C@@H](O)[C@@H](C)[C@H](OC(C)=O)[C@@H]1C` [RIFAMPIN], the MIC [14] is reported as “>=2 - 200 ug ml-1”, the MIC [15] is reported as “>=2 - 200 ug ml-1” and the MIC [16] is reported as “>=2 - 200 ug ml-1”. For the same compound, the MIC [17] was “>=2 - 200 ug ml-1”, the MIC [18] was “>=2 - 200 ug ml-1” and the MIC [19] was “>=2 - 200 ug ml-1”. The MIC [20] was “>=2 - 200 ug ml-1”, the MIC [21] was “>=2 - 200 ug ml-1” and the MIC [22] was “>=2 - 200 ug ml-1”. For the same compound, the MIC [23] was “>=2 - 200 ug ml-1”, the MIC [24] was “>=2 - 200 ug ml-1” and the MIC [25] was “>=2 - 200 ug ml-1”. For the same compound, the MIC [26] was “>=2 - 200 ug ml-1”, the MIC [27] was “>=2 - 200 ug ml-1” and the MIC [28] was “>=2 - 200 ug ml-1”. For the same compound, the MIC [29] was “>=2 - 200 ug ml-1”.
With `N=C1NCC[C@H]([C@@H]2NC(=O)/C(=C/NC(N)=O)NC(=O)[C@H](CNC(=O)C[C@@H](N)CCCN)NC(=O)[C@H](CO)NC(=O)[C@@H](N)CNC2=O)N1` (H-[Dap]S[Dap](β3hOrn)[ΔAla(Z-3-ureido)][X1]; lactam 1-C) the MIC [2] was greater than 2.5 µg/mL.
With `CC[C@@H](CO)NCCN[C@@H](CC)CO` [ETHAMBUTOL] the MIC [30] was 10 to 50 µg/mL and the MIC [31] was 10 to 50 µg/mL.
For `NC(=O)c1cnccn1` [PYRAZINAMIDE], the MIC [32] was “>=400 - 800 ug ml-1” and the MIC [33] was “>=400 - 800 ug ml-1”.
Compound `C[C@H]1COc2c(N3CCN(C)CC3)c(F)cc3c(=O)c(C(=O)O)cn1c23.C[C@H]1COc2c(N3CCN(C)CC3)c(F)cc3c(=O)c(C(=O)O)cn1c23.O` [LEVOFLOXACIN] has an MIC [34] greater than 10 µg/mL, an MIC [35] greater than 10 µg/mL and an MIC [36] greater than 10 µg/mL. For the same compound, the MIC [37] was greater than 10 µg/mL, the MIC [38] was greater than 1 µg/mL and the MIC [39] was greater than 1 µg/mL.
In the case of `CC(=O)NC[C@H]1CN(c2ccc(N3CCOCC3)c(F)c2)C(=O)O1` [LINEZOLID], the MIC [40] is reported as greater than 1 µg/mL and the MIC [41] is reported as 0.125 to 0.5 µg/mL (≈ 0.371 to 1.48 µM).
